Legend:
Type in all cases: biochemical
[1] = target: MMP-9 (Homo sapiens, UniProt P14780); assay: Assay for inhibitory activities on MMPs (fluorogenic peptide substrate), MMP-9
Source text: MMP-9 was isolated and purified by the procedure of Y. Okada et al. (Yasunori Okada, Yukio Gonoji, Katsumi Naka, Katsuro Tomita, Isao Nakanishi, Kazushi Iwata, Kyoko Yamashita, and Taro Hayakawa: Matrix metalloproteinase 9 (92-kDa gelatinase/type IV collagenase) from HT1080 human fibrosarcoma cells. Purification and activation of the precursor and enzymic properties, J. Biol. Chem., 1992, 267, 21712-21719) in combination with other following methods: 1) Yasunori Okada, Tatsuhisa Morodomi, Jan J, Enghild, Ko Suzuki, Atsushi Yasui, Isao Nakanishi, Guy Salvesen and Hideaki Nagase: Matrix metalloproteinase 2 from human rheumatoid synovial fibroblasts. Purification and activation of the precursor and enzymic properties, Eur. J. Biochem., 1990, 194, 721-730; 2) Robin V Ward, Rosalind M Hembry, John J Reynolds and Gillian Murphy: The purification of tissue inhibitor of metalloproteinase-2 from its 72 kDa progelatinase complex. Biochem. J., 1991, 278, 179-187. In detail, human fibrosarcoma ATCC HT1080 cell line was cultured to confluent in Dulbecco's Modified Medium (DMEM) containing 10% fetal-calf serum at 37° C. for 48 hours. Subsequently, the medium of confluent culture was changed to serum-free DMEM medium. To obtain MMP-9, phorbol-12-myristate-13-acetate (TPA) must be added to this serum-free DMEM medium at a concentration of 50 ng/ml. The TPA-treated medium was centrifuged at 3000 rpm for 15 min, and the supernatant was concentrated to 450 ml by a Toyo-Roshi UP-20 apparatus with an ultrafiltration membrane. Then, proMMP-9 in this concentrated solution was purified by using columns of Gelatin-Sepharose and Concanavalin A-Sepharose. The pool containing proMMP-9 was dialyzed, concentrated (Toyo-Roshi UP-20) and applied to columns of Sephacryl S-200 and Green A matrix for the separation from TIMPs. The obtained proMMP-9 fraction was activated by TPCK-Trypsin (Final conc.: 3 μg/501 React Mix.).
(§1) The enzymatic activity on MMPs was analyzed by the method described in “C. Graham Knight, Frances Willenbrock and Gillian Murphy: A novel coumarin-labelled peptide for sensitive continuous assays of the matrix metalloproteinases: FEBS LETT., 296, (1992), 263-266”. The substrate: MOCAc-Pro-Leu-Gly-Leu-A2Pr(DNP)-Ala-Arg-NH2 was purchased from Peptide Institute, Inc., Osaka, Japan. The measurement of the inhibitory activities (IC50) was carried out by the following four methods;
(§2) (A) Reaction with substrate, enzyme (MMPs) and inhibitor
(§3) (B) Reaction with substrate and inhibitor, without enzyme
(§4) (C) Reaction with substrate and enzyme (MMPs), without inhibitor
(§5) (D) Reaction with substrate only
(§6) IC50 values were calculated by using the following formula and each fluorescence values of above four methods (A to D).
(§7) % inhibition={1-(A−B)/(C−D)}×100
(§8) IC50 means the concentration required to inhibit 50% of the enzyme activity.
(§9) The value of inhibitory activity against MMP-2, MMP-8, MMP-9, MMP-12, and MMP-13 measured by above mentioned methods are shown in Table 25 and 26.

[2] = target: T1, MMP-8 (Homo sapiens, UniProt P22894); assay: Assay for inhibitory activities on MMPs (fluorogenic peptide substrate), MMP-8
T1 construct: In regard to MMP-8, catalytic domain (^99Phe˜^262Gly) was amplified with PCR; His-tag; enterokinase digestion-site
T1 sequence (P22894 99-262): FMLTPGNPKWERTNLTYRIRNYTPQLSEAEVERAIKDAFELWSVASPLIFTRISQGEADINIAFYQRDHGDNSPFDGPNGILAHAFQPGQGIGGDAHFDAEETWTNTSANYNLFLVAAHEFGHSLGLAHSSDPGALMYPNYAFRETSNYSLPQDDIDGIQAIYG
Source text: In regard to MMP-8, catalytic domain (^99Phe˜^262Gly) was amplified with PCR using commercial available Human Bone Marrow cDNA. This was cloned in Escherichia coli expression vector pTrc99AHE inserted with His-tag sequence and enterokinase digestion-site, induced and expressed by IPTG (Isopropyl-β-D-thiogalactopyranoside) and expressed in a insoluble fraction (Than F. Ho, M. Walid Qoronfleh, Robert C. Wahl, Trica A. Pulvino, Karen J. Vavra, Joe Falvo, Tracey M. Banks, Patricia G. Brake and Richard B. Ciccarelli: Gene expression, purification and characterization of recombinant human neutrophil collagenase. Gene 146, (1994) 297-301. It was prepared by the method in a slight modification). Isolation of MMP-8 from an insoluble fraction was carried out by dissolving in modifier (6 M urea) by a usual method and purification with metal chelate chromatography. And then removing modifier (6 M urea) with dialysis and refolding of the enzyme spontaneously gave activated MMP-8.
as §1, §2, §3, §4, §5, §6, §7, §8, §9

[3] = target: T2, MMP-2 (Homo sapiens, UniProt P08253); assay: Assay for inhibitory activities on MMPs (fluorogenic peptide substrate), MMP-2
T2 sequence (P08253 110-660): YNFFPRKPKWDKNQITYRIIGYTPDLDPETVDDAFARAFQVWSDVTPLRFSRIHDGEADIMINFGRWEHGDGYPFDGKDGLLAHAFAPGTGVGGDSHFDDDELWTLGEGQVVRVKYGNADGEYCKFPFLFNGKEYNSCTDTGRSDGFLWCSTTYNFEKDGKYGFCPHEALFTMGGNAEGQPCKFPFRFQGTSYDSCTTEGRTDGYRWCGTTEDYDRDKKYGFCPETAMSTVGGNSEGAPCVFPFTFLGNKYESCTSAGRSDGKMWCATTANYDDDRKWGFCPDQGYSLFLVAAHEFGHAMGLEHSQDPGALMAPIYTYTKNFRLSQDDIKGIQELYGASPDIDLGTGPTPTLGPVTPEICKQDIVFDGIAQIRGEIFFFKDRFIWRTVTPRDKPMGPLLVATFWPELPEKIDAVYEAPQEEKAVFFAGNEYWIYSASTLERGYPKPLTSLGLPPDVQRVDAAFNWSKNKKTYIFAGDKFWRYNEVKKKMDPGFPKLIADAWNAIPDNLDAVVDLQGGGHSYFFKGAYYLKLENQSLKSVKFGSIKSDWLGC
Description: MMP-2 was purchased from Calbiochem-Novabiochem International, Inc.
as §1, §2, §3, §4, §5, §6, §7, §8, §9

[4] = target: T3, MMP-12 (Homo sapiens, UniProt P39900); assay: Assay for inhibitory activities on MMPs (fluorogenic peptide substrate), MMP-12
T3 construct: In regard to MMP-12, catalytic domain (^100Phe˜^263Gly) was amplified with RT-PCR; His-tag; enterokinase digestion-site
T3 sequence (P39900 100-263): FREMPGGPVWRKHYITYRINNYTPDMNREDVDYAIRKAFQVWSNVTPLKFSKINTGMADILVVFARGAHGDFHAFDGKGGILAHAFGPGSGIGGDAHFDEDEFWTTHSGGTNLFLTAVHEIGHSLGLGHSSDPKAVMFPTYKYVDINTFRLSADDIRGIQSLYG
Description: In regard to MMP-12, catalytic domain (^100Phe˜^263Gly) was amplified with RT-PCR from Human Placenta Total RNA. This was cloned in Escherichia coli expression vector pTrc99AHE inserted with His-tag sequence and enterokinase digestion-site, induced and expressed by IPTG (Isopropyl-β-D-thiogalactopyranoside) and expressed in an insoluble fraction. Isolation of MMP-12 from an insoluble fraction was carried out by dissolving in modifier (6 M urea) by a usual method and purification with metal chelate chromatography (Ni Chelateing Sepharose). And then removing modifier (6 M urea) with dialysis and refolding of the enzyme spontaneously gave activated MMP-12.
as §1, §2, §3, §4, §5, §6, §7, §8, §9

[5] = target: T4, MMP-13 (Homo sapiens, UniProt P45452); assay: Assay for inhibitory activities on MMPs (fluorogenic peptide substrate), MMP-13
T4 construct: catalytic domain (^104Tyr˜^267Gly) was amplified with RT-PCR; His-tag; enterokinase digestion-site
Description: In regard to MMP-13, mRNA was prepared from carcinoma cell SW1353 derived from human cartilage stimulate by IL-1 and TNF, and catalytic domain (^[…]) was amplified with RT-PCR. This was cloned in Escherichia coli expression vector […] inserted with His-tag sequence and enterokinase digestion-site, induced and expressed by IPTG (Isopropyl-β-D-thiogalactopyranoside) and expressed in an insoluble fraction. Isolation of MMP-13 from an insoluble fraction was carried out by dissolving in modifier (6 M urea) by a usual method and purification with metal chelate chromatography (Ni […] Sepharose). And then removing modifier (6 M urea) with dialyze and refolding of the enzyme spontaneously gave activated MMP-13. The enzymatic activity on MMPs was analyzed by the method described in “C. Graham Knight, Frances Willenbrock and Gillian Murphy: A novel coumarin-labelled peptide for sensitive continuous assays of the matrix metalloproteinases: FEBS LETT., 296, (1992), 263-266”. The substrate: MOCAc-[…] was purchased from Peptide Institute, Inc., Osaka, Japan. The measurement of the inhibitory activities (IC50) was carried out by the following four methods; (A) Reaction with substrate, enzyme (MMPs) and inhibitor (B) Reaction with substrate and inhibitor, without enzyme (C) Reaction with substrate and enzyme (MMPs), without inhibitor (D) Reaction with substrate only IC50 values were calculated by using the following formula and each fluorescence values of above four methods (A to D). % inhibition={1-(A-B)/(C-D)}×100 IC50 means the concentration required to inhibit 50% of the enzyme activity. The value of inhibitory activity against MMP-2, MMP-8, MMP-9, MMP-12, and MMP-13 measured by above mentioned methods are shown in Table 25 and 26.

Sequence of MMP-9 (P14780 107-707): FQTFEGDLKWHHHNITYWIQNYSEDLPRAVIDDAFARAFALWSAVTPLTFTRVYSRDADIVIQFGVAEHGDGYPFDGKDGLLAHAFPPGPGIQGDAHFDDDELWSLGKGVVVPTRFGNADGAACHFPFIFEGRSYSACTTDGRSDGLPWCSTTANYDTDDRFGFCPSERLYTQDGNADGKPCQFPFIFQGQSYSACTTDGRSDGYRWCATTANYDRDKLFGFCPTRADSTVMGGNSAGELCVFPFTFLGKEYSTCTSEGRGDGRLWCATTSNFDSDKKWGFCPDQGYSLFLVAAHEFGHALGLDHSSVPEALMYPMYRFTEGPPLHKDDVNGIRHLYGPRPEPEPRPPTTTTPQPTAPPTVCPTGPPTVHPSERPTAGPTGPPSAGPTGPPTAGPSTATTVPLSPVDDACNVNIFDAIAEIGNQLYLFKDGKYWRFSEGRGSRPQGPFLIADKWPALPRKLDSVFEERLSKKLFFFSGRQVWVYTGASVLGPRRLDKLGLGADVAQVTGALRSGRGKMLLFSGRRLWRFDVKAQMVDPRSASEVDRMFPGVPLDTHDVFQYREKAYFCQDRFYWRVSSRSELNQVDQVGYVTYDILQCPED

| Structure (SMILES) | IC50 [1] [nM] | IC50 [2] [nM] | IC50 [3] [nM] | IC50 [4] [nM] | IC50 [5] [nM] |
| --- | --- | --- | --- | --- | --- |
| COc1cccc(C(=O)Nc2ccc(-c3ccc(S(=O)(=O)N[C@H](C)C(=O)O)cc3)cc2)c1 [VI-16] | > 10000 | 1100 | 563 | 1020 | 77.1 |
| O=C(Nc1ccc(-c2ccc(S(=O)(=O)N[C@H](Cc3ccccc3)C(=O)O)cc2)cc1)c1cccs1 [VI-7] | 4340 | 2350 | 156 | 611 | 33.3 |
| COc1cccc(C(=O)Nc2ccc(-c3ccc(S(=O)(=O)N[C@H](Cc4ccccc4)C(=O)O)cc3)cc2)c1 [VI-5] | > 10000 | 623 | 660 | 1230 | 50.1 |
| CC(C)(C)[C@H](NS(=O)(=O)c1ccc(-c2ccc(NC(=O)c3cc4ccccc4s3)cc2)cc1)C(=O)O [VI-49] | > 10000 | 158 | 241 | 98.8 | 10 |
| O=C(Nc1ccc(-c2ccc(S(=O)(=O)N[C@H](Cc3ccccc3)C(=O)O)cc2)cc1)c1cc2ccccc2s1 [VI-47] | > 10000 | > 10000 | > 10000 | > 10000 | 136 |
| O=C(Nc1ccc(-c2ccc(S(=O)(=O)N[C@@H](Cc3ccccc3)C(=O)O)cc2)cc1)c1ccc2ccccc2c1 [VI-36] | > 10000 | > 10000 | > 10000 | 7970 | 65.1 |
| COc1ccc(C(=O)Nc2ccc(-c3ccc(S(=O)(=O)N[C@H](C)C(=O)O)cc3)cc2)cc1OC [VI-24] | > 10000 | 1520 | 839 | 443 | 50.1 |

Other lines, results leading:

| IC50 [1] [nM] | IC50 [2] [nM] | IC50 [3] [nM] | IC50 [4] [nM] | IC50 [5] [nM] | Structure (SMILES) |
| --- | --- | --- | --- | --- | --- |
| > 10000 | > 10000 | 5010 | 5290 | 3.49 | COc1ccc2cc(C#Cc3ccc(-c4ccc(S(=O)(=O)N[C@H](CO)C(=O)O)cc4)cc3)ccc2c1 [III-44] |
| > 10000 | 508 | > 10000 | 536 | 128 | COc1ccc2cc(C#Cc3ccc(-c4ccc(S(=O)(=O)N[C@@H](C(=O)O)c5ccc(O)cc5)cc4)cc3)ccc2c1 [III-51] |
| > 10000 | > 10000 | > 10000 | > 10000 | 5.6 | COc1ccc2cc(C#Cc3ccc(-c4ccc(S(=O)(=O)N[C@H](C)C(=O)O)cc4)cc3)ccc2c1 [III-17] |
| > 10000 | 261 | 499 | 363 | 15.1 | CC(C)C[C@@H](NS(=O)(=O)c1ccc(-c2ccc(C#Cc3ccc4ccccc4c3)cc2)cc1)C(=O)O [III-6] |
| > 10000 | > 10000 | > 10000 | > 10000 | 100 | COc1ccc(C[C@H](NS(=O)(=O)c2ccc(-c3ccc(C#Cc4ccc5cc(OC)ccc5c4)cc3)cc2)C(=O)O)cc1 [III-48] |
| > 10000 | 36.9 | > 4000 | 58.3 | 5.73 | COc1ccc2cc(C#Cc3ccc(-c4ccc(S(=O)(=O)N[C@H](C(=O)O)C(C)C)cc4)cc3)ccc2c1 [III-21] |
| > 10000 | 40.1 | 72.6 | 47.4 | 4.54 | CC(C)[C@@H](NS(=O)(=O)c1ccc(-c2ccc(C#Cc3ccc4ccccc4c3)cc2)cc1)C(=O)O [III-4] |
| > 10000 | 89.3 | 2850 | 117 | 24.2 | COc1ccc2cc(C#Cc3ccc(-c4ccc(S(=O)(=O)N[C@@H](CCSC)C(=O)O)cc4)cc3)ccc2c1 [III-25] |
| > 10000 | 243 | 50.6 | 125 | 13.8 | COCC(NS(=O)(=O)c1ccc(-c2ccc(C#Cc3ccc4cc(OC)ccc4c3)cc2)cc1)C(=O)O (stereo not drawn) [III-50] |
| > 5000 | > 5000 | > 5000 | 2200 | 15.7 | COc1ccc2cc(C#Cc3ccc(-c4ccc(S(=O)(=O)N[C@H](Cc5ccccc5)C(=O)O)cc4)cc3)ccc2c1 [III-28] |
| > 10000 | 5710 | > 10000 | 9680 | 55.7 | COc1ccc2cc(C#Cc3ccc(-c4ccc(S(=O)(=O)N[C@H](CC(C)C)C(=O)O)cc4)cc3)ccc2c1 [III-22] |
